Experimental data reported in patent EP4703354A1, “COMPOUND AS CCR6 ANTAGONIST, AND PHARMACEUTICAL COMPOSITION AND USE THEREOF” (Wuhan Createrna Science and Technology Co.,Ltd., priority 2023, dated 2024).

Experiments:
[1] = in vitro liver microsome metabolic stability, human; type: in vitro ADME; conditions: Human liver microsomes, 37°C
Procedure: (§1) Preparation of working solutions for test compounds and standards: An appropriate amount of the compound was accurately weighed and dissolved in a corresponding volume of suitable solvent to prepare 1 mM stock solutions of the test compounds and standards. The stock solutions were then diluted with appropriate solvent to obtain 100 µM working solutions of the test compounds, ensuring that the DMSO content in the working solutions remained below 10%.
(§2) The internal standard compound testosterone (or tolbutamide) and its corresponding solvent, internal standard concentration (200 ng/mL), were selected based on the properties of the test compound.
(§3) • Solution A: 0.1 mol/L K2HPO4 (2.28 g K2HPO4·3H2O was dissolved in 100 mL of double-distilled water); • Solution B: 0.1 mol/L KH2PO4 (1.36 g KH2PO4 was dissolved in 100 mL of double-distilled water); • 80.2 mL of Solution A and 19.8 mL of Solution B were mixed thoroughly, and the pH was adjusted to 7.4.
(§4) 37.5 mg of glycine was weighed, dissolved in 100 mL of ultrapure water, and adjusted to pH 8.0 with NaOH.
(§5) 1.25 mg of glucose-6-phosphate dehydrogenase (400 U/mg) was weighed (the specific amount weighed was calculated based on the activity of the purchased glucose-6-phosphate dehydrogenase), dissolved in 1 mL of glycine buffer to a concentration of 500 U/mL, aliquoted into 20 µL per tube, and stored at -20°C for future use.
(§6) 7.83 mg of NADP, 0.06 mL of D-glucose-6-phosphate (260 mg/mL), and 10.17 mg of MgCl2·6H2O were precisely weighed.
(§7) The mixture was dissolved in 1 mL of pure water. The cofactor ratio composition: NADP 10 mM, D-glucose-6-phosphate 60 mM, MgCl2·6H2O 50 mM.
(§8) The reaction system (taking a 500 µL system as an example) was composed of the following solution ratios: 416.5 µL phosphate buffer, 5 µL compound working solution, 25 µL liver microsomes, 3.5 µL glucose-6-phosphate dehydrogenase, and 50 µL cofactor solution. The total incubation volume could be adjusted according to experimental requirements.
(§9) 416.5 µL of phosphate buffer was taken, 25 µL of liver microsomes, 3.5 µL of glucose-6-phosphate dehydrogenase, and 50 µL of cofactor solution were added, vortexed twice to mix, and preincubated in a 37°C water bath for 5 minutes. Then, 5 µL of the test compound working solution was added, vortexed twice to mix, each time for 2-3 seconds, and placed in a 37°C water bath to initiate the reaction, with two parallel samples set. At 0.5 min, 1 min, 2 min, 5 min, 15 min, and 30 min after the reaction, 50 µL of the mixture was taken and added to centrifuge tubes containing 200 µL of 0°C pre-cooled internal standard working solution to terminate the reaction, vortexed for 1 minute to mix, and centrifuged at 13,000 rpm for 10 minutes in a 4°C pre-cooled high-speed centrifuge. The supernatant was collected for analysis. After the compound was added and vortex-mixed, 50 µL of the mixture was rapidly transferred to a centrifuge tube containing 200 µL of a pre-cooled (0°C) internal standard working solution to terminate the reaction, vortex-mixed for 1 minute, and used as the relative zero-point sample (relative to the standard group). The sample was then placed into a 37°C water bath to initiate the reaction, and timing was started.
(§10) The sample analysis of the test compound was performed using the liquid chromatography-tandem mass spectrometry (LCMS/MS) method. The semi-quantitative determination was performed using the ratio of the analyte peak area to the internal standard peak area. The retention times of the analyte and internal standard, chromatogram acquisition, and chromatogram integration were processed using Analyst software.
(§11) The in vitro elimination rate constant k of the test compound and the control compound was determined by converting the ratio of the peak area of the test compound to the internal standard into the remaining rate, and T1/2 was then calculated according to the following formula. T1/2 = (Ln2)/(k) = (0.693)/(k) [formula] Table 3. […]

[2] = in vitro liver microsome metabolic stability, rat; type: in vitro ADME; conditions: Rat liver microsomes, 37°C
Procedure: as §1, §2, §3, §4, §5, §6, §7, §8, §9, §10, §11

[3] = in vitro liver microsome metabolic stability, beagle dog; type: in vitro ADME; conditions: Beagle dog liver microsomes, 37°C
Procedure: as §1, §2, §3, §4, §5, §6, §7, §8, §9, §10, §11

[4] = in vivo pharmacokinetic study in SD rats; conditions: male, rat, plasma; for AUC(0-t) / Cmax / half-life: 1 mg/kg
Procedure: 2.2.1 Rats: SD rats, SPF grade, 6 rats per compound, male, body weight range 180-200 g.
2.2.2 Housing conditions: The animals were housed in an SPF-grade animal facility with free access to food and water, three per cage, under a 12/12-hour light/dark cycle (7:00 am/7:00 pm), at a temperature of 23 ± 3°C.
2.2.3 Drug preparation: The compound was precisely weighed, mixed with the required volume of 1% Tween 80, vortexed for 2 min, and then sonicated for 5 min until no visible particles remained. The mixture was subsequently stirred on a magnetic stirrer for 20 min, and the middle layer of the drug solution was collected for administration. For the IV group, the compound was accurately weighed, dissolved in the required volume of 50% PEG400, sonicated for 10 min, and vortexed until clear before administration.
The rats were randomly divided into 2 groups based on body weight, with 3 rats per compound per group. Group 1 was administered a single oral gavage dose (fasted), and Group 2 was administered a single tail vein bolus injection. Blood collection time points: for the po group, blood was collected at 0.167 h, 0.5 h, 1 h, 2 h, 3 h, 4 h, 6 h, and 8 h; for the iv group, blood was collected at 0.033 h, 0.167 h, 0.5 h, 1 h, 2 h, 4 h, 6 h, and 8 h.
After administration to the rats, blood was collected from the orbital venous plexus according to the sampling time points. Approximately 0.2-0.3 mL of blood was collected at each time point into anticoagulant EP tubes (containing 4 µL of EDTA-K2, 375 mg/mL, dried at 50°C). The tubes were slowly inverted up and down three times and stored in an ice box (for no more than 30 minutes). Centrifugation was performed at 4°C at 3000 × g for 10 minutes, and the supernatant was transferred to labeled EP tubes for bioanalytical testing. If testing could not be performed on the same day, the samples were stored at -80°C until analysis (care was taken to avoid multiple freeze/thaw cycles).
The data were analyzed using WinNonlin via a non-compartmental model to obtain PK parameters (Cmax, AUC0-last, AUCinf, T1/2, etc., selected based on different routes of administration). For specific data, please refer to Table 2. Table 2. PK experimental results of compounds in SD rats

human CCR6 = target: T1, human CCR6 (Homo sapiens, UniProt P51684); experiment: human CCR6 calcium flux activity (FLIPR, HEK293 cells stably expressing human CCR6, CCL20 stimulation); type: cell-based; conditions: HEK293 cells stably expressing human CCR6, EC80 human MIP-3 alpha/CCL20; read-out: CCR6 inhibitory activity, IC50
T1 construct: expressed in transfected cells; host or cells: HEK293
T1 sequence (P51684 1-374): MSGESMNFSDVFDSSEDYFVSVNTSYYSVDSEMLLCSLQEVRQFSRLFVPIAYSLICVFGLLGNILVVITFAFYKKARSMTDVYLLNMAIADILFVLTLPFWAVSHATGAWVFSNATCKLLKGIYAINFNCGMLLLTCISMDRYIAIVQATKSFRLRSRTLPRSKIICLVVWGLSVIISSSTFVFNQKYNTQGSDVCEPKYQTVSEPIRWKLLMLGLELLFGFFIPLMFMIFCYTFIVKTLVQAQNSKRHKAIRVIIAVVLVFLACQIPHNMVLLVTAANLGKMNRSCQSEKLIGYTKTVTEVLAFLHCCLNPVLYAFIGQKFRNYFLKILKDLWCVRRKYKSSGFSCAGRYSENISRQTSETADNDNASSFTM
Procedure: The activity of the compounds was evaluated using HEK293 cells stably expressing human CCR6 via the FLIPR platform. A 384-well black cell culture plate (Greiner, 781946) was used, with a seeding density of 20,000 cells/well, and incubated overnight at 37°C in a 5% CO2 incubator. The culture medium in the cell plate wells was removed, and 20 µL of Fluo-4 Direct™ Calcium Assay Buffer (Invitrogen, F10471, Component C), 20 µL of 2× Fluo-4 Direct™ Calcium Assay Reagent (Invitrogen, F10471, Component A) working solution, and 10 µL of 6× test compound working solution were sequentially added to each well. The cell plate was incubated in a 37 °C, 5% CO2 incubator for 50 min, followed by a 10 min incubation at room temperature. Additionally, a 6×EC80 human MIP-3 alpha/CCL20 (MCE, HY-P7262) working solution was prepared. After the incubation was completed, 10 µL/well of the 6×EC80 human MIP-3 alpha/CCL20 working solution was transferred to the cell plate using a FLIPR instrument, and the fluorescence signal changes at an excitation wavelength of 494 nm and an emission wavelength of 516 nm were recorded over 90 seconds. The difference between the maximum fluorescence signal (RFUMax) and the minimum fluorescence signal (RFUMin) was used as the output signal. The compound inhibition rate and the log value of the compound concentration were calculated, and a four-parameter fitting analysis was performed using GraphPad Prism 8 software to obtain the IC50 value of the test compound.

Row | Compound | Liver microsome T1-2 (min) Human [1] | Liver microsome T1-2 (min) Rat [2] | Liver microsome T1-2 (min) Beagle dog [3] | also measured
1 | CN(C)C(=O)c1nccc(Nc2c(N[C@@H](c3nc(C(F)F)ccc3F)C3(C)CC(F)(F)CO3)c(=O)c2=O)c1O (stereo partly drawn) [compound 097, 4-((2-(((1S)-(4,4-difluoro-2-methyltetrahydrofuran-2-yl)(6-(difluoromethyl)-3-fluoropyridin-2-yl)methyl)amino)-3,4-dioxocyclobut-1-en-1-yl)amino)-3-hydroxy-N,N-dimethylpicolinamide] | 724.74 min | 230.78 min | 209.62 min | –
2 | Cc1cccnc1C(Nc1c(Nc2ccc(Cl)c(C(=O)N(C)C)c2O)c(=O)c1=O)C1(C)CC(F)(F)CO1 (centres unmarked) [compound 080, 6-chloro-3-((2-(((4,4-difluoro-2-methyltetrahydrofuran-2-yl)(3-methylpyridin-2-yl)methyl)amino)-3,4-dioxocyclobut-1-en-1-yl)amino)-2-hydroxy-N, N-dimethylbenzamide] | 539.06 min | 109.92 min | 1205.26 min | –
3 | Cc1cccnc1C(Nc1c(Nc2ccc(F)c(C(=O)N(C)C)c2O)c(=O)c1=O)[C@]1(C)CC(F)(F)CO1 (stereo partly drawn) [087A, 3-((2-((((S)-4,4-difluoro-2-methyltetrahydrofuran-2-yl)(3-methylpyridin-2-yl)methyl)amino)-3,4-dioxocyclobut-1-en-1-yl)amino)-6-fluoro-2-hydroxy-N,N-dimethylbenzamide] | 511.03 min | 120.46 min | 431.98 min | –
4 | Cc1nccnc1[C@H](Nc1c(Nc2ccnc(C(=O)N(C)C)c2O)c(=O)c1=O)C1(C)CCCC1 [compound 091, (R)-3-hydroxy-N,N-dimethyl-4-((2-(((1-methylcyclopentyl)(3-methylpyrazin-2-yl)methyl)amino)-3,4-dioxocyclobut-1-en-1-yl)amino)picolinamide] | 717.09 min | 72.62 min | 338.24 min | –
5 | Cc1cccnc1[C@H](Nc1c(Nc2ccnc(C(=O)N(C)C)c2O)c(=O)c1=O)C1(C)CCCO1 (stereo partly drawn) [compound 082, 3-hydroxy-N,N-dimethyl-4-((2-(((1S)-(3-methylpyridin-2-yl)(2-methyltetrahydrofuran-2-yl)methyl)amino)-3,4-dioxocyclobut-1-en-1-yl)amino)picolinamide] | 261.96 min | 290.01 min | 275.16 min | –
6 | Cc1nccnc1[C@H](Nc1c(Nc2ccc(F)c(C(=O)N(C)C)c2O)c(=O)c1=O)C1(C)CCCC1 [compound 130, (R)-6-fluoro-2-hydroxy-N,N-dimethyl-3-((2-(((1-methylcyclopentyl)(3-methylpyrazin-2-yl)methyl)amino)-3,4-dioxocyclobut-1-en-1-yl)amino)benzamide] | – | 109.49 min | 2270.89 min | bioavailability ([4]; 1 mg/kg PO vs 1 mg/kg IV, read-out: Oral bioavailability F (%)): 24%; AUC(0-t) ([4]; IV): 752 ng·h/mL; Cmax ([4]; IV): 5530 ng/mL; half-life ([4]; IV): 0.22 h; AUC(0-t) ([4]; PO): 181 ng·h/mL; Cmax ([4]; PO): 158 ng/mL; half-life ([4]; PO): 2.79 h
7 | CC#CC(Nc1c(Nc2ccnc(C(=O)N(C)C)c2O)c(=O)c1=O)C1(C)CC(F)(F)CO1 (centres unmarked) [compound 112, 4-((2-((1-(4,4-difluoro-2-methyltetrahydrofuran-2-yl)but-2-yn-1-yl)amino)-3,4-dioxocyclobut-1-en-1-yl)amino)-3-hydroxy-N,N-dimethylpicolinamide] | – | 560.45 min | – | IC50 (human CCR6): 165 nM
